The structures appear in SMILES notation. Entries after “also recorded” stand apart in the source; their conditions may differ.

For one experiment, the target named is T1, FKBP12 (Homo sapiens, UniProt P62942).
T1 construct: 6His-SUMO (N, cleaved yes); made in house; host or cells: E. coli (identical protocol to FBD35, BL21 DE3)
The experiment can be described thus: Fluorescence polarization competition, FKBP12. The class given is binding. In general terms: Fluorescence polarisation rises when a labelled molecule tumbles more slowly, as on binding a larger partner.

The target in experiment [1] is T2, FBD35 (PfFKBP35 binding domain) (Plasmodium falciparum, UniProt Q8I4V8).
T2 construct: FKBP35 Q5 -A128; 6His-SUMO (N, cleaved yes); made in house; host or cells: E. coli BL21 DE3
T2 sequence (Q8I4V8 5-128): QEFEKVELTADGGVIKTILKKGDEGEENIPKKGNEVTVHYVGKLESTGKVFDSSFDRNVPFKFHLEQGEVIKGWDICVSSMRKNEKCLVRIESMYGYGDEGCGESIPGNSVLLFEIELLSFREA
The experiment can be described thus: Differential scanning calorimetry, FBD35. The following applies: read-out: FBD35 ΔTM. In general terms: Differential scanning calorimetry records heat flow against a reference as temperature is scanned.

The target in experiment [2] is T3, nLuc-tagged full length PfFKBP35 (Plasmodium falciparum, UniProt Q8I4V8).
T3 construct: nanoluciferase-tagged (nLuc) full length PfFKBP35 or nLuc-tagged FKBP12; expressed in transfected cells
T3 sequence (Q8I4V8 whole entry): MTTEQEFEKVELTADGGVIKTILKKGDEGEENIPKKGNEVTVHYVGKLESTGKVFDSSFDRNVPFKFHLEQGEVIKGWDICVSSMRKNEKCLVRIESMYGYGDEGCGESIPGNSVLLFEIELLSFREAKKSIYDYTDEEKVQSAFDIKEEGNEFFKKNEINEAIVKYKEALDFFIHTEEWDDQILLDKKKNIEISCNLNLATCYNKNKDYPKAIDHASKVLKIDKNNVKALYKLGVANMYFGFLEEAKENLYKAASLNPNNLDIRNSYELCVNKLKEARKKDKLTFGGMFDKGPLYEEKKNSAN
Kind of experiment: NanoBRET cellular target engagement, nLuc-FKBP35. The class given is cell-based.

For a further experiment, the target named is T4, nLuc-tagged FKBP12 (Homo sapiens, UniProt P62942).
T4 construct: full length Plasmodium falciparum FKBP35 and human FKBP12 DNA were; expressed in transfected cells
T4 sequence (P62942 whole entry): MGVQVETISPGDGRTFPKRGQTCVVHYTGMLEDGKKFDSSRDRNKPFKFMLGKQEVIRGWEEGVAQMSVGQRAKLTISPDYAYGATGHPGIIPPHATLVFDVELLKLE
The experiment can be described thus: NanoBRET cellular target engagement, nLuc-FKBP12. The class given is cell-based.

Another experiment addresses T5, FKBP35 (Plasmodium falciparum, UniProt Q8I4V8).
T5 construct: FKBP35 Q5 -A128; 6His-SUMO (N, cleaved yes); made in house; host or cells: E. coli BL21 DE3
Kind of experiment: Time course of covalent modification by LC-MS. The class given is biochemical. The following applies: for K, rate of FKBP35 consumption: 2250 nM inhibitor : 450 nM FKBP35, 23 °C, one phase decay fit; for K’, rate of covalent adduct formation: 2250 nM inhibitor : 450 nM FKBP35, exponential plateau fit. An excerpt:
RT=5.2). B. Overlay of mass determinations from LC traces in (A). FBD35 only (black, m/z = […]
chromatogram corresponding to Figure 4c detecting the CAM -peptide […] at […]
m/z 855.8668. D. Mass spec chromatogram corresponding to Figure 4d detecting the CAM - […]
peptide […] at m/z 855.8670. E. Mass spec chromatogram corresponding to Figure 4e which was unable to detect the mass of the 1c-inclusion peptide. F. Mass spec chromatogram corresponding to Figure 4f detecting the 1c-inclusion peptide […]
Figure S2. Time course of covalent modification. In order to compare rates of covalent modification, compounds 1a-c, 2a, and 2c were incubated with FKBP35 in a 5:1 ratio (2250 nM inhibitor : 450 nM FKBP35) and FKBP35 consumption or modification determined by LC -MS. A.
The concentration of residual FKBP35 as a function of time. Data was fit to an exponential “one phase decay” model which was used to calculate the rate (K) and half -life (t1/2) of the reaction.
The loss of FKBP35 in the DMSO and 1b controls is likely due to adsorption onto the vial. B.
Concentration of covalent adduct as a function of time. Data was fit to an “exponential plateau” regression model, which was used to calculate the rate of formation (K’). Compound 1b, which […]
C. Tabulated rates calculated from the regressions in A and B. The rates of FKBP35 consumption correlate strongly with the rates of […]
(also on this page, place not known: -inclusion 1c 0 20 40 60 0 200 400 600 Time (hours) FKBP35 (nM) Consumption of FKBP35 1a 1b 1c 2a 2c DMSO 0 20 40 60 0 200 400 600 Time (hours) Covalent Adduct (nM) Formation of Covalent Adduct 1a 1b 1c 2a 2c A B) […]
(1 picture or pasted object on this page, not shown here)
Experiments were performed using 0.4 mg/mL concentration of wild -type or mutant protein (6 - 9 uM), with and without synthes ized compounds at 40 µM and 2% DMSO (V/V). The respective reference scans were run under identical DSC conditions and subtracted from each sample scan.
The program was run in a continuous acquisition mode from 25°C to 90°C at a rate of 120C/h The heat capacity curves and midpoint temperature (Tm) were analyzed using Origin 7.0 software.
Fluorescence Polarization
The fluorescent tracer SLFb-2PEG-TAMRA was diluted in DMSO to 100 nM (100x stock concentration). FKBP proteins were diluted in assay buffer (150 mM NaCl, 20 mM HEPES pH 7.5, 0.002% Triton X -100) to the indicated concentration. 100x DMSO tracer stock was added to the protein buffer solution to a 1X final concentration and 20 µL of the mixture was aliquoted into each well of a black 384 -well assay plate (No. 3820, Corning Life Sciences). The plate was briefly centrifuged to remove bubbles. Using a d300e digital dispenser (Tecan), competitive ligands (10 mM stock in DMSO) were aliquoted in triplicate in an 8 -point 3x dilution series (30 µM to 13.7 nM final concentra tion) and normalized to 2% total DMSO concentration. Following incubation at room temperature (RT) for one hour, fluorescence polarization was measured using an EnVision Multimode Plate Reader (PerkinElmer) with the TAMRA Dual -FP mirror and filter kit. […]
analyzed in GraphPad Prism 8 by fitting the data to the “One Site – Fit Ki” model to obtain the […]
Time Course Analysis of Covalent Inhibition
The following analy sis was performed as described on two different days, yielding similar results.
One replicate is shown for clarity. In 1.5 mL snap -top tubes, ligands 1a, 1b, 1c, 2a, and 2c were each diluted to 450 μM in DMSO to produce 200x stock solutions. In a separate 1.5 mL snap-top tube, isolated FKBP35 protein was diluted to 90 μM in the reaction buffer (150 mM NaCl, 20 mM HEPES pH = 7.5) to produce a 200x stock solution. In 2 mL glass mass spec vials, 5 μL of each 200x ligand solution was diluted in 990 μL reaction buffer. Immediately prior to injection of each t=0 time point, 5 μL of the 200x protein solution was added to the mass spec vial and mixed. Samples were analyzed using the Waters BioAccord LC-ToF (composed of an ACQUITY I -Class UPLC and […]

T5 sequence (Q8I4V8 5-128): as the sequence (Q8I4V8 5-128) above
T1 sequence (P62942 whole entry): as the sequence (P62942 whole entry) above

As to `C=CC(=O)Nc1cccc([C@@H](CCc2ccc(OC)c(OC)c2)OC(=O)[C@@H]2CCCCN2C(=O)C(=O)C(C)(C)CC)c1` [1a], the values for the IC50 (on FKBP12; in experiment [2]; at nLuc-tagged FKBP12) were 132 nM, 1230 nM and 481 nM, respectively. Besides, in experiment [1], the ΔTm – broadly, the shift of the melting midpoint relative to a reference – at 40 µM is 13.4 °C. The “K, rate of FKBP35 consumption” value on FKBP35 was 0.0724 h⁻¹. In addition, the “K’, rate of covalent adduct formation” value at FKBP35 turned out to be 0.05948 h⁻¹.

Turning to `CCC(=O)Nc1cccc([C@@H](CCc2ccc(OC)c(OC)c2)OC(=O)[C@@H]2CCCCN2C(=O)C(=O)C(C)(C)CC)c1` [1b], the IC50 (commonly the concentration at which inhibition is half-maximal) came to 58 nM at FKBP12, 876 nM in experiment [2] and 313 nM at nLuc-tagged FKBP12. Besides, the ΔTm at 40 µM in experiment [1] worked out at 2.8 °C. For the same compound, the “covalent adduct formation (in words)” value on FKBP35 (LC-MS time course) was “no binding; also recorded: does not form any adduct”.

In the case of `C=CC(=O)Nc1ccccc1[C@@H](CCc1ccc(OC)c(OC)c1)OC(=O)[C@@H]1CCCCN1C(=O)C(=O)C(C)(C)CC` [1c], the half-maximal inhibitory concentration (IC50) at FKBP12 came to 423 nM. Also, in experiment [1], the ΔTm at 40 µM was found to be 9.6 °C. Moreover, on FKBP35, the “K, rate of FKBP35 consumption” value came to 0.1132 h⁻¹ and the “K’, rate of covalent adduct formation” value worked out at 0.1128 h⁻¹.

With `C=CC(=O)OCC(C)(C)C(=O)C(=O)N1CCCC[C@H]1C(=O)O[C@H](CCc1ccc(OC)c(OC)c1)c1ccccc1` [2c], the IC50 was 166 nM at FKBP12, 854 nM in experiment [2] and 601 nM against nLuc-tagged FKBP12. Moreover, the ΔTm at 40 µM in experiment [1] amounted to 14.5 °C. For the same compound, at FKBP35, the “K, rate of FKBP35 consumption” value was determined as 0.8871 h⁻¹. Also, the “K’, rate of covalent adduct formation” value on FKBP35 came out at 0.9298 h⁻¹.

The values are drawn from paper PMC7667655, “Targeted Covalent Inhibition of Plasmodium FK506 Binding Protein 35” (ACS Medicinal Chemistry Letters, 2020).
